Activity calls are given as the source filed them. No rule for the calls is given here.

The data set relates to CCRIS mutagenicity, Ames/micronucleus/aberration tests. As to the kind of experiment: CCRIS mutagenicity studies.
The mark [1] stands for this setting: Test System: AMES SALMONELLA TYPHIMURIUM, Strain/Indicator: TA98, Metabolic Activation: NONE, Method: STANDARD PLATE.
The mark [2] stands for this setting: Test System: AMES SALMONELLA TYPHIMURIUM, Strain/Indicator: TA98, Metabolic Activation: RAT, LIVER, S-9, AROCLOR 1254, Method: STANDARD PLATE.
Setting [3] is: Test System: AMES SALMONELLA TYPHIMURIUM, Strain/Indicator: TA100, Metabolic Activation: NONE, Method: STANDARD PLATE.
Where [4] appears, read: Test System: AMES SALMONELLA TYPHIMURIUM, Strain/Indicator: TA1535, Metabolic Activation: NONE, Method: STANDARD PLATE.
[5] abbreviates: Test System: AMES SALMONELLA TYPHIMURIUM, Strain/Indicator: TA98, Metabolic Activation: NONE, Method: PREINCUBATION
[6] abbreviates: Test System: AMES SALMONELLA TYPHIMURIUM, Strain/Indicator: TA100, Metabolic Activation: NONE, Method: PREINCUBATION
The mark [7] stands for this setting: Test System: AMES SALMONELLA TYPHIMURIUM, Strain/Indicator: TA1535, Metabolic Activation: NONE, Method: PREINCUBATION
Where [8] appears, read: Test System: AMES SALMONELLA TYPHIMURIUM, Strain/Indicator: TA1537, Metabolic Activation: NONE, Method: PREINCUBATION

With `O=[N+]([O-])C(Br)Br`, the mutagenic call was “inactive; negative” (Test System: Ames Salmonella typhimurium, Strain/Indicator: RSJ100, Metabolic Activation: None, Method: Standard plate); “inactive; negative” (Test System: Ames Salmonella typhimurium, Strain/Indicator: RSJ100, Metabolic Activation: Rat, Liver, S-9, Aroclor, Method: Standard plate); “inactive; negative” (Test System: Ames Salmonella typhimurium, Strain/Indicator: TA98, Metabolic Activation: None, Method: Standard plate); “inactive; negative” (Test System: Ames Salmonella typhimurium, Strain/Indicator: TA98, Metabolic Activation: Rat, Liver, S-9, Aroclor, Method: Standard plate); “active; positive” (Test System: Ames Salmonella typhimurium, Strain/Indicator: TA100, Metabolic Activation: None, Method: Standard plate); “active; positive” (Test System: Ames Salmonella typhimurium, Strain/Indicator: TA100, Metabolic Activation: Rat, Liver, S-9, Aroclor, Method: Standard plate). For the same compound, the mutagenic call was “inactive; negative” (Test System: Ames Salmonella typhimurium, Strain/Indicator: TA104, Metabolic Activation: None, Method: Standard plate); “inactive; negative” (Test System: Ames Salmonella typhimurium, Strain/Indicator: TA104, Metabolic Activation: Rat, Liver, S-9, Aroclor, Method: Standard plate); “inactive; negative” (Test System: Ames Salmonella typhimurium, Strain/Indicator: TPT100, Metabolic Activation: None, Method: Standard plate).

`COc1cc(CCC(C)=O)ccc1O`: the mutagenic call was “inactive; negative” under setting [1]; “inactive; negative” under setting [2]; “inactive; negative” under setting [3]; “inactive; negative” (Test System: AMES SALMONELLA TYPHIMURIUM, Strain/Indicator: TA100, Metabolic Activation: RAT, LIVER, S-9, AROCLOR 1254, Method: STANDARD PLATE); “inactive; negative” under setting [4]; “inactive; negative” (Test System: AMES SALMONELLA TYPHIMURIUM, Strain/Indicator: TA1535, Metabolic Activation: RAT, LIVER, S-9, AROCLOR 1254, Method: STANDARD PLATE). Further, the mutagenic call reads like this: (Test System: AMES SALMONELLA TYPHIMURIUM, Strain/Indicator: TA1538, Metabolic Activation: NONE, Method: STANDARD PLATE) “inactive; negative”; (Test System: AMES SALMONELLA TYPHIMURIUM, Strain/Indicator: TA1538, Metabolic Activation: RAT, LIVER, S-9, AROCLOR 1254, Method: STANDARD PLATE) “inactive; negative”; (Test System: E. COLI, Strain/Indicator: CM561 LEXA, Metabolic Activation: NONE, Method: STANDARD PLATE) “inactive; negative”; (Test System: E. COLI, Strain/Indicator: CM611 UVRA/LEXA, Metabolic Activation: NONE, Method: STANDARD PLATE) “inactive; negative”; (Test System: E. COLI, Strain/Indicator: WP2 UVRA, Metabolic Activation: NONE, Method: STANDARD PLATE) “inactive; negative”.

Take `Cc1cc(C)n(-c2nnc(NN)c3c2[nH]c2ccccc23)n1`: the mutagenic call runs as follows: under setting [5], “inactive; negative”; (Test System: AMES SALMONELLA TYPHIMURIUM, Strain/Indicator: TA98, Metabolic Activation: RAT, LIVER, S-9, AROCLOR 1254 (4 OR 10%), Method: PREINCUBATION) “inactive; negative”; under setting [6], “inactive; negative”; (Test System: AMES SALMONELLA TYPHIMURIUM, Strain/Indicator: TA100, Metabolic Activation: RAT, LIVER, S-9, AROCLOR 1254 (4 OR 10%), Method: PREINCUBATION) “inactive; negative”; under setting [7], “inactive; negative”; (Test System: AMES SALMONELLA TYPHIMURIUM, Strain/Indicator: TA1535, Metabolic Activation: RAT, LIVER, S-9, AROCLOR 1254 (10%), Method: PREINCUBATION) “inactive; negative”. Also, the mutagenic call runs as follows: under setting [8], “inactive; negative”; (Test System: AMES SALMONELLA TYPHIMURIUM, Strain/Indicator: TA1537, Metabolic Activation: RAT, LIVER, S-9, AROCLOR 1254 (4 OR 10%), Method: PREINCUBATION) “inactive; negative”.

Take `CNS(=O)(=O)c1ccc(NC(C)=O)cc1`: the mutagenic call was “inactive; negative” under setting [5]; “inactive; negative” (Test System: AMES SALMONELLA TYPHIMURIUM, Strain/Indicator: TA98, Metabolic Activation: RAT, LIVER, S-9, AROCLOR 1254, Method: PREINCUBATION); “inactive; negative” under setting [6]; “inactive; negative” (Test System: AMES SALMONELLA TYPHIMURIUM, Strain/Indicator: TA100, Metabolic Activation: RAT, LIVER, S-9, AROCLOR 1254, Method: PREINCUBATION).

For `CN1CCc2cc3c(c4c2[C@H]1Cc1ccccc1-4)OCO3`, the mutagenic call (Test System: AMES SALMONELLA TYPHIMURIUM, Strain/Indicator: TA98, Metabolic Activation: RAT, LIVER, S-9, PHENOBARBITAL AND BETA-NAPHTHOFLAVONE, Method: PREINCUBATION) was “active; positive” and the mutagenic call (Test System: AMES SALMONELLA TYPHIMURIUM, Strain/Indicator: TA100, Metabolic Activation: RAT, LIVER, S-9, PHENOBARBITAL AND BETA-NAPHTHOFLAVONE, Method: PREINCUBATION) was “active; positive”.

For the compound `Cc1ccc(CC2CO2)cc1` (stereo not given), the mutagenic call under setting [6] was “active; positive”, the mutagenic call under setting [3] is “active; positive”, the mutagenic call under setting [7] is “active; positive” and the mutagenic call under setting [4] was “active; positive”.

Regarding `Cc1cccc(CN(C)N=O)c1`, the mutagenic call (Test System: AMES SALMONELLA TYPHIMURIUM, Strain/Indicator: TA1535, Metabolic Activation: HAMSTER, LIVER, S-9, AROCLOR 1254, Method: STANDARD PLATE) is “active; positive” and the mutagenic call under setting [4] was “inactive; negative”.

Take `O=[N+]([O-])c1ccc(Sc2ccccc2)cc1`: the mutagenic call reads like this: (Test System: AMES SALMONELLA TYPHIMURIUM, Strain/Indicator: TA98(1,8-DNP6), Metabolic Activation: NONE, Method: STANDARD PLATE) “active; positive”; (Test System: AMES SALMONELLA TYPHIMURIUM, Strain/Indicator: TA98(NR), Metabolic Activation: NONE, Method: STANDARD PLATE) “inactive; negative”; under setting [1], “active; positive”; under setting [2], “active; positive”.

Turning to `CN(c1nccc(=O)[nH]1)C1CCN(c2nc3ccccc3n2Cc2ccc(F)cc2)CC1`, the mutagenic call runs as follows: under setting [5], “inactive; negative”; (Test System: AMES SALMONELLA TYPHIMURIUM, Strain/Indicator: TA98, Metabolic Activation: RAT LIVER S-9, PHENOBARBITAL AND 5,6-BENZOFLAVONE, Method: PREINCUBATION) “inactive; negative”; under setting [6], “inactive; negative”; (Test System: AMES SALMONELLA TYPHIMURIUM, Strain/Indicator: TA100, Metabolic Activation: RAT LIVER S-9, PHENOBARBITAL AND 5,6-BENZOFLAVONE, Method: PREINCUBATION) “inactive; negative”; under setting [7], “inactive; negative”; (Test System: AMES SALMONELLA TYPHIMURIUM, Strain/Indicator: TA1535, Metabolic Activation: RAT LIVER S-9, PHENOBARBITAL AND 5,6-BENZOFLAVONE, Method: PREINCUBATION) “inactive; negative”. Moreover, the mutagenic call under setting [8] was “inactive; negative”; the mutagenic call (Test System: AMES SALMONELLA TYPHIMURIUM, Strain/Indicator: TA1537, Metabolic Activation: RAT LIVER S-9, PHENOBARBITAL AND 5,6-BENZOFLAVONE, Method: PREINCUBATION) was “inactive; negative”; the mutagenic call (Test System: E.COLI, Strain/Indicator: WP2 UVRA, Metabolic Activation: NONE, Method: PREINCUBATION) was “inactive; negative”; the mutagenic call (Test System: E.COLI, Strain/Indicator: WP2 UVRA, Metabolic Activation: RAT LIVER S-9, PHENOBARBITAL AND 5,6-BENZOFLAVONE, Method: PREINCUBATION) is “inactive; negative”.

`O=C(N=c1sn(C(=O)c2cccc([N+](=O)[O-])c2)c2ccc([N+](=O)[O-])cc12)c1cccc([N+](=O)[O-])c1`: under “Test System: AMES SALMONELLA TYPHIMURIUM, Strain/Indicator: TA100, Metabolic Activation: S-9, Method: STANDARD PLATE”, the mutagenic call was “active; positive”.

As for `CCN(CCC#N)c1ccc(N=Nc2c(Cl)cc([N+](=O)[O-])cc2Cl)cc1`, the mutagenic call is “active; positive” under setting [1]; “active; positive” under setting [2]; “active; positive” (Test System: AMES SALMONELLA TYPHIMURIUM, Strain/Indicator: YG1041, Metabolic Activation: NONE, Method: STANDARD PLATE); “active; positive” (Test System: AMES SALMONELLA TYPHIMURIUM, Strain/Indicator: YG1041, Metabolic Activation: RAT, LIVER, S-9, AROCLOR 1254, Method: STANDARD PLATE).

Turning to `Cc1ccc(N)c(Cl)c1`, the mutagenic call (Test System: UDS RODENT HEPATOCYTES, Strain/Indicator: THY INCORP (NON-S-PHASE), Metabolic Activation: NONE, Method: AUTORADIOGRAPHY) is “active; positive”.

(Values after PubChem BioAssay AID1259407 (Chemical Carcinogenesis Research Information System (CCRIS), 2018).)
